Read-outs that look alike come from different tables or passages of the source.
What was measured:
[1] = HPLC on immobilized artificial membrane column (HPLCIAM); type: physicochemical; conditions: for log k IAM: Table S5, IAM column, pH 7.4; for k IAM: Table S5, retention factor, IAM column, phosphate buffer pH 7.4/acetonitrile 80:20
[2] = tested on: plasma protein; conditions: Table S1, plasma protein binding given as fraction; ref DrugBank [7]; cited from earlier work
[3] = Table S1, coded 1/0; ref DrugBank [7]; cited from earlier work
[4] = NP TLC on non-impregnated control plates; type: physicochemical; conditions: Table S3, non-impregnated NP plate; acetonitrile/acetate buffer pH 7.4/methanol 60:20:20
[5] = target: T1, bovine serum albumin (BSA) (Bos taurus, UniProt P02769); test: NP TLC on plates impregnated with bovine serum albumin; type: binding; conditions: Table S3, NP plate impregnated with 2 mg/mL BSA; pH 7.4 mobile phase
T1 construct: purchased Sigma Aldrich

[6] = RP TLC on non-impregnated control plates; type: physicochemical; conditions: Table S4, non-impregnated RP plate; acetonitrile/acetate buffer pH 7.4/methanol 60:20:20
[7] = Table S1, milk/plasma drug concentration ratio, in vivo; cited from earlier work
[8] = target: T1, bovine serum albumin (BSA); test: RP TLC on plates impregnated with bovine serum albumin; type: binding; conditions: Table S4, RP plate impregnated with 2 mg/mL BSA; pH 7.4 mobile phase
[9] = target: T2, human serum albumin (HSA) (Homo sapiens, UniProt P02768)
[10] = Milk-to-plasma (M/P) drug concentration ratio obtained in vivo, from literature; set-up: species or system human; conditions: Table S1, scale of drug penetration into milk 1-4
[11] = target: T2, human serum albumin (HSA); test: in vitro; conditions: immobilized hsa column, pH 7.4
[12] = Table S5, retention factor, HSA column, pH 7.4, 25 degrees Celsius
[13] = human, immobilized hsa column, pH 7.4

T1 sequence (P02769 25-607): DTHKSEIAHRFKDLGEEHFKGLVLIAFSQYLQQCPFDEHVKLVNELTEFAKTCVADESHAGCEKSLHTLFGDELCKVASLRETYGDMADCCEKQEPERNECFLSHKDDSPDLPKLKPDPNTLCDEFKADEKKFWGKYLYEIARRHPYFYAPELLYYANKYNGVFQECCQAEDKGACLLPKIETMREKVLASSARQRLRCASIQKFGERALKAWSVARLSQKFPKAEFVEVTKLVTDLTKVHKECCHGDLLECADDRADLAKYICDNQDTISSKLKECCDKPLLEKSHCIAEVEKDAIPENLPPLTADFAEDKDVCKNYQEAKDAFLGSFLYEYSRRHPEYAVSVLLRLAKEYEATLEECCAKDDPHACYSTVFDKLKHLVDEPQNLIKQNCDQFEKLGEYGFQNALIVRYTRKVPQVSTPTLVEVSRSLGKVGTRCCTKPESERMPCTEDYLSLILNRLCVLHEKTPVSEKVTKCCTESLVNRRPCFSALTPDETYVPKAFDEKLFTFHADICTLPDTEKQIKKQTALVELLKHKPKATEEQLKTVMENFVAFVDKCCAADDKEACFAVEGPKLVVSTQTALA
T2 sequence (P02768 25-609): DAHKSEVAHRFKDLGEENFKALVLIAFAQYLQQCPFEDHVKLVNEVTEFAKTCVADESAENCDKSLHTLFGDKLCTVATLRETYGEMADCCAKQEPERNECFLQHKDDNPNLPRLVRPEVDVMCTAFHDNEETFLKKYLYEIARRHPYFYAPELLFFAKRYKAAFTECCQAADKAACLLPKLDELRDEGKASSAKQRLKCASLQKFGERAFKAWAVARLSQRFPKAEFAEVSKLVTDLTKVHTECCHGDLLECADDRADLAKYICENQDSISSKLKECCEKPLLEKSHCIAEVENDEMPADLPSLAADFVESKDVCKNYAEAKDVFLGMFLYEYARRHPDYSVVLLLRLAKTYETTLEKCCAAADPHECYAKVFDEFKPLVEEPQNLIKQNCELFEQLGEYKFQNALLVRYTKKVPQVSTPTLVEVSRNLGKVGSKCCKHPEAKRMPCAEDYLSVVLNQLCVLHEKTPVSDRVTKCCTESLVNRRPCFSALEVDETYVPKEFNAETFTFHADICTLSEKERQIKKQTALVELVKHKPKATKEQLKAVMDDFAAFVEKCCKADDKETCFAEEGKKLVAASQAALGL

SMILES | log k IAM [1] | k IAM [1] | PB [2] | CNS+/- [3] | CNP (Rf, control NP plate) [4] | NP (Rf, BSA-impregnated NP plate) [5] | CRP (Rf, control RP plate) [6] | M/P [7] | RP (Rf, BSA-impregnated RP plate) [8] | k HSA [9, 12] | M/P code [10] | chromatographic logD [11] | log k HSA ([9]; Table S5, HSA, pH 7.4) | log k HSA [9, 13] | k HSA ([9]; pH 7.4)
CC(=O)Oc1ccccc1C(=O)O [acetylsalicylic acid] | -1.52 | 0.03 | 0.995 | 1 | 0.89 | 0.90 | 0.98 | 1.08 | 0.99 | 0.31 | 3 (3 range 0.81–1.20—possibly over the safety limit) | -0.51 | – | – | –
CC1(C)S[C@@H]2[C@H](NC(=O)[C@H](N)c3ccc(O)cc3)C(=O)N2[C@H]1C(=O)O [amoxilcillin] | -1.32 | 0.05 | 0.2 | 0 | 0.68 | 0.68 | 0.99 | 0.028 | 0.98 | 0.94 | 1 (Code 1 corresponds to drugs with an M/P value <0.40—completely safe) | – | -0.03 | – | –
CC(C)NCC(O)COc1ccc(CCOCC2CC2)cc1 (stereo not drawn) [betaxolol] | – | – | 0.5 | 0 | 0.66 | 0.65 | 0.27 | 2.75 | 0.25 | 1.59 | 4 (4 is M/P >1.20—dangerous) | – | – | 0.20 | –
Cc1ccc(-c2cc(C(F)(F)F)nn2-c2ccc(S(N)(=O)=O)cc2)cc1 [celecoxib] | 1.70 | 50.01 | 0.97 | 1 | 0.98 | 0.99 | 0.75 | 0.41 | 0.75 | 13.42 | 2 (2 corresponds to the range of 0.40–0.80—at the safety limit) | – | 1.13 | – | –
COc1cc(N)c(Cl)cc1C(=O)NC1CCN(CCCOc2ccc(F)cc2)CC1OC (stereo not drawn) [cisapride] | 1.76 | 57.99 | 0.975 | 1 | 0.64 | 0.63 | 0.65 | 0.045 | 0.62 | 4.88 | 1 (Code 1 corresponds to drugs with an M/P value <0.40—completely safe) | – | – | 0.69 | –
CC[C@H]1OC(=O)[C@H](C)[C@@H](O[C@H]2C[C@@](C)(OC)[C@@H](O)[C@H](C)O2)[C@H](C)[C@@H](O[C@@H]2O[C@H](C)C[C@H](N(C)C)[C@H]2O)[C@](C)(OC)C[C@@H](C)C(=O)[C@H](C)[C@@H](O)[C@]1(C)O [clarithromycin] | -1.02 | 0.10 | – | 0 | 0.99 | 0.99 | 0.83 | 0.25 | 0.78 | 0.82 | 1 (Code 1 corresponds to drugs with an M/P value <0.40—completely safe) | – | -0.09 | – | –
O=C(O)C1N=C(c2ccccc2)c2cc(Cl)ccc2NC1=O (stereo not drawn) [clorazepate] | 0.69 | 4.88 | 0.975 | – | 0.94 | 0.94 | 0.81 | 0.2 | 0.81 | – | 1 (Code 1 corresponds to drugs with an M/P value <0.40—completely safe) | 0.6 | – | – | 3.99
Fc1ccc([C@@H]2CCNC[C@H]2COc2ccc3c(c2)OCO3)cc1 [paroxetine] | 2.06 | 115.77 | 0.94 | 1 | 0.55 | 0.56 | 0.60 | 0.675 | 0.67 | 5.96 | 2 (2 corresponds to the range of 0.40–0.80—at the safety limit) | – | 0.78 | – | –
CN1C(C(=O)Nc2ccccn2)=C(O)c2ccccc2S1(=O)=O [piroxicam] | -0.79 | 0.16 | – | 0 | 0.98 | 0.98 | 0.58 | 0.02 | 0.60 | 32.92 | 1 (Code 1 corresponds to drugs with an M/P value <0.40—completely safe) | 1.52 | – | – | –
CCOC(=O)[C@H](CCc1ccccc1)N[C@@H](C)C(=O)N1Cc2ccccc2C[C@H]1C(=O)O [quinapril] | 0.09 | 1.22 | 0.97 | 0 | 0.44 | 0.44 | 0.57 | 0.12 | 0.56 | 3.1 | 1 (Code 1 corresponds to drugs with an M/P value <0.40—completely safe) | – | – | 0.49 | –
CN[C@H]1CC[C@@H](c2ccc(Cl)c(Cl)c2)c2ccccc21 [sertraline] | 1.63 | 42.89 | 0.98 | – | 0.53 | 0.53 | 0.49 | 1.85 | 0.48 | 13.19 | 4 (4 is M/P >1.20—dangerous) | – | – | 1.12 | –
CN1CCN(C(=O)OC2c3nccnc3C(=O)N2c2ccc(Cl)cn2)CC1 (stereo not drawn) [zopiclone] | -0.04 | 0.91 | 0.45 | – | 0.96 | 0.96 | 0.84 | 0.51 | 0.83 | – | 2 (2 corresponds to the range of 0.40–0.80—at the safety limit) | -0.12 | – | – | 0.76
OCCN1CCN(CC/C=C2/c3ccccc3Sc3ccc(Cl)cc32)CC1 [zuclopenthixol] | 1.69 | 48.73 | 0.985 | 1 | 0.47 | 0.47 | – | 0.37 | – | 16.18 | 1 (Code 1 corresponds to drugs with an M/P value <0.40—completely safe) | 1.21 | – | – | –
